Molecules are shown by their SMILES. The source made the active and inactive calls. No rule for the calls is given here.

In this test the target is Ubiquitin-conjugating enzyme E2 N (Homo sapiens) (UniProt P61088). In words: NMR detection of UBE2N ligand binding – biophysical, purified protein (AID 1552). The note with it: NMR binding to purified UBE2N.
Sequence of Ubiquitin-conjugating enzyme E2 N (Homo sapiens) (P61088 whole entry, looked up): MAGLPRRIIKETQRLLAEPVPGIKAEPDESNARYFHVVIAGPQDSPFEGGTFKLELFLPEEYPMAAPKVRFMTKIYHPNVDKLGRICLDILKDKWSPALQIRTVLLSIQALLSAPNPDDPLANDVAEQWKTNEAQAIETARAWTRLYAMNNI
What is called Kd is the constant that tells how readily two partners part at equilibrium. Regarding `NCC(N)C(=O)c1ccccc1` (configuration not stated), the Kd was > 4 mM (inactive). `Cn1c(=O)c2c(n(C)c1=O)=NC1(CCCCC1)N=2`: the Kd is > 4 mM (inactive).

Regarding `CNCc1ccccc1`, the Kd is > 4 mM (inactive). As for `O=C(NC1=NCCS1)c1ccc(Cl)s1`, the Kd was > 4 mM (inactive). The value for `Cc1cc(NC(=O)Cc2cccs2)no1` was > 4 mM (inactive). For `COc1cccc(NC(=O)c2ocnc2C)c1`, the Kd was > 4 mM (inactive). The value for `Cc1onc(-c2ccccc2)c1C(=O)O` was > 4 mM (inactive).

Consider `CCn1cnc2cc(NCc3ccncc3)ccc21`, for which the Kd is > 4 mM (inactive). As to `O=C(NC1=NCCS1)c1ccc2snnc2c1`, the Kd is > 4 mM (inactive).

On to `NCc1ccc(-c2cccs2)cc1`, for which the Kd is > 4 mM (inactive). For `Cc1nnc(N2CCN(Cc3ccccc3)CC2)[nH]c1=O`, the Kd is > 4 mM (inactive). For `CCOC(=O)CC1NCCNC1=O` (configuration not stated), the Kd is > 4 mM (inactive). The value for `CCC(=O)Nc1cccc(NC(C)=O)c1` was > 4 mM (inactive); that for `COc1ccc(CN2CCNC(=O)C2CC(=O)O)cc1C` (configuration not stated) was > 4 mM (inactive). Regarding `c1ccc(-c2noc(-c3ccc4c(c3)OCO4)n2)nc1`, the Kd is > 4 mM (inactive). Take `O=C(O)[C@H](O)[C@@](O)(Cc1ccc(O)cc1)C(=O)O`: the Kd was > 4 mM (inactive). The value for `c1cncc(-c2nnc(-c3cccnc3)nn2)c1` was > 4 mM (inactive). The value for `CSc1n[nH]c(NCc2ccccc2)n1` was > 4 mM (inactive); that for `COc1ccc2c(c1)OCC(Cc1ccc(OC)c(O)c1)C2=O` (configuration not stated) was > 4 mM (inactive).

Take `CCCn1cnc2sc(C(N)=O)c(C)c2c1=O`: the Kd is > 4 mM (inactive). As to `CNC(=O)C(=O)Nc1c(C)cccc1C`, the Kd was > 4 mM (inactive). Regarding `O=C(NCc1ccco1)c1nc2ncccn2n1`, the Kd is > 4 mM (inactive). In the case of `CNC(=S)NCCN1CCOCC1`, the Kd is > 4 mM (inactive). Regarding `COc1ccc(NC(=O)CCCC(=O)O)c(OC)c1`, the Kd was > 4 mM (inactive). As for `CC1=C2C(O)C(=O)OC3CC4C(C)(C)C(=O)C=C[C@]4(C)C(CC1)[C@]23C` (some centres not stated), the Kd was > 4 mM (inactive). As to `O=C(O)c1cccc(O)c1O`, the Kd was > 4 mM (inactive).

In the case of `NCc1cccc2nsnc12`, the Kd is > 4 mM (inactive).

Take `CN1CCN(c2ccc(N)cc2)CC1`: the Kd was > 4 mM (inactive). As to `Nc1cc(=O)[nH]c(=S)n1-c1cccc(C(F)(F)F)c1`, the Kd was > 4 mM (inactive). As for `Cc1cc2cc3c(C)cc(=O)oc3c(C)c2o1`, the Kd was > 4 mM (inactive). `C[n+]1ccn(C/C(N)=N/O)c1`: the Kd is > 4 mM (inactive). As to `c1ccc(CCc2nc(-c3ccncc3)no2)cc1`, the Kd is > 4 mM (inactive). In the case of `O=C(NCc1ccco1)c1ccc(Br)s1`, the Kd is > 4 mM (inactive). For the compound `Cc1cc(N)n(-c2ccccc2)n1`, the Kd was > 4 mM (inactive). As for `CN(C)c1ccc(/C=C2/NC(=S)NC2=O)cc1`, the Kd was > 4 mM (inactive).

For `CC(=O)Oc1c(-c2ccccc2)oc2c(CC=C(C)C)c3c(c(OC(C)=O)c2c1=O)C=CC(C)(C)O3`, the Kd is > 4 mM (inactive).

In the case of `Cc1cccc(N2C(=O)CCC2=O)n1`, the Kd is > 4 mM (inactive). As for `O=C1NC(=S)N/C1=C\c1cccc([N+](=O)[O-])c1`, the Kd is > 4 mM (inactive). For `O=C(Nc1cnc2ccccn2c1=O)c1ccc(F)cc1`, the Kd is > 4 mM (inactive). As to `O=C(CO)N/N=C/c1ccccc1F`, the Kd was > 4 mM (inactive).

With `O=c1cc(-c2ccc(O)cc2)[nH]c(=S)[nH]1`, the Kd was > 4 mM (inactive).

Consider `Cn1c2ccccc2n2c(=S)[nH]nc12`, for which the Kd was > 4 mM (inactive). As to `Cc1nc2ccc(NC(=O)N3CCOCC3)cc2s1`, the Kd is > 4 mM (inactive).

Consider `CC1(C)C(=O)C=C[C@@]2(C)C1C[C@@H](O)[C@]1(C)C2CC[C@@]2(C)[C@H](c3ccoc3)OC(=O)[C@H]3O[C@]321` (some centres not stated), for which the Kd is > 4 mM (inactive). In the case of `O=C(O)c1ccc2c(c1)CCO2` it was > 4 mM (inactive). The value for `NC(=NCCC[C@H](N)C(=O)O)NC(CCC(=O)O)C(=O)O` (some centres not stated) was > 4 mM (inactive). The value for `O=C(O)C1C(=O)NCC1c1ccccc1` (configuration not stated) was > 4 mM (inactive); that for `Cc1[nH]c2ccccc2c1Cc1n[nH]c(=S)n1C` was > 4 mM (inactive). Take `O=C(Nc1nncs1)C1(c2ccccc2)CCCC1`: the Kd was > 4 mM (inactive).

`Cc1ccc(C)n1/N=C1\NC(=O)CS1`: the Kd was > 4 mM (inactive). Take `COC(=O)Nc1nnc(-c2ccncc2)s1`: the Kd is > 4 mM (inactive). In the case of `N#CCCn1c(=O)oc2ccccc21` it was > 4 mM (inactive). On to `O=C(c1ccc(Cl)c(F)c1F)N1CCCC1`, for which the Kd is > 4 mM (inactive).

Regarding `O=C(Nc1ccccc1)NC1CCS(=O)(=O)C1` (configuration not stated), the Kd is > 4 mM (inactive). With `OCc1ccc(N2CCOCC2)nc1`, the Kd is > 4 mM (inactive). In the case of `Cc1noc(C)c1C(=O)N1CCc2ccccc21`, the Kd is > 4 mM (inactive). Regarding `Cc1ccc(-n2nnnc2SCC(N)=O)c(C)c1`, the Kd is > 4 mM (inactive).

As to `O=C(O)C12CC3CC(CC(O)(C3)C1)C2`, the Kd is > 4 mM (inactive). `COc1ccc(NC(=O)CSc2nccc(=O)[nH]2)cc1`: the Kd was > 4 mM (inactive). In the case of `O=C(O)Cn1nnnc1-c1ccc(F)cc1` it was > 4 mM (inactive); in that of `CCc1ccc(/C=N/n2cnnc2)cc1`, > 4 mM (inactive).

In the case of `COc1cc2c3cc1Oc1c(OC)c(OC)cc4c1[C@@H](Cc1cccc(c1)Oc1ccc(c(O)c1)C[C@@H]3N(C)CC2)N(C)CC4`, the Kd was > 4 mM (inactive). Consider `COc1ccc2c(c1)O[C@H]1c3ccc(OC)cc3OC[C@@H]21`, for which the Kd was > 4 mM (inactive). Take `NC(=O)N1CCc2ccccc21`: the Kd is > 4 mM (inactive). Turning to `Cc1cc(C)nc(/N=C(/N)N2CCN(C)CC2)n1`, the Kd is > 4 mM (inactive).

Take `NC(=O)CN1CCCCCC1=O`: the Kd is > 4 mM (inactive). In the case of `O=c1nc(C(F)(F)F)nc2ccccn12` it was > 4 mM (inactive); in that of `C=C1C(=O)OC2CC1C(OC(C)=O)C/C(C)=C/CC/C(C)=C/CC[C@]2(C)O` (some centres not stated), > 4 mM (inactive); in that of `Oc1ccc(C2SCCS2)cc1`, > 4 mM (inactive). In the case of `CC(CCC(=O)O)[C@H]1CCC2C3CC[C@@H]4C[C@H](O)CC[C@]4(C)C3CC[C@@]21C` (some centres not stated) it was > 4 mM (inactive). The value for `O=C(O)/C=C1\NC(=O)c2ccccc21` was > 4 mM (inactive); that for `CC(=O)Nc1cc(N2C(=O)C=CC2=O)ccc1Cl` was > 4 mM (inactive); that for `O=C(Nc1ccon1)c1sc2cc(F)ccc2c1Cl` was > 4 mM (inactive). `COc1ccc2c(c1OC)C(=O)O[C@@H]2[C@@H]1c2cc3c(cc2CCN1C)OCO3`: the Kd is > 4 mM (inactive). On to `Oc1cc(O)cc(/C=C/c2ccccc2)c1`, for which the Kd is > 4 mM (inactive).

Consider `NC(=O)Cn1cnc2ccccc21`, for which the Kd is > 4 mM (inactive). With `COC(=O)C[C@H]1C(C)(C)C(OC(C)=O)[C@]2(O)C=C3C(CC[C@]4(C)C3CC(=O)O[C@H]4c3ccoc3)C1(C)C2=O` (some centres not stated), the Kd was > 4 mM (inactive).

Turning to `O=C1NC(=O)C(Cc2cccs2)C(=O)N1`, the Kd was > 4 mM (inactive). In the case of `N#Cc1ccccc1CSc1ccccn1` it was > 4 mM (inactive); in that of `CC(C)C1COc2cc3oc(=O)ccc3cc2O1` (configuration not stated), > 4 mM (inactive); in that of `O=C(O)C(Cc1cnc[nH]1)N1C(=O)c2ccccc2C1=O` (configuration not stated), > 4 mM (inactive).

`COc1cc(CNC(=O)CCCC/C=C/C(C)C)ccc1O`: the Kd was > 4 mM (inactive).

As to `CC1(C)NCCN2C(=O)CSC21` (configuration not stated), the Kd is > 4 mM (inactive).

Take `C[C@H]1[C@H](C)CC[C@]2(C(=O)O)CC[C@]3(C)C(=CCC4[C@@]5(C)C[C@@H](O)[C@H](O)[C@@](C)(CO)C5[C@H](O)C[C@]43C)[C@H]12` (some centres not stated): the Kd is > 4 mM (inactive). In the case of `CC(=O)O[C@H]1C[C@@H](OC(C)=O)C(C)(C)C2CC(=O)[C@]3(C)C(CC[C@@]4(C)[C@H](C(=O)O)OC(=O)C5OC543)[C@]21C` (some centres not stated), the Kd was > 4 mM (inactive). For `OCc1cc2ccccc2o1`, the Kd was > 4 mM (inactive). The value for `Cc1cc(C)cc(OC(=O)N2CCOCC2)c1` was > 4 mM (inactive); that for `CCC(=O)Oc1ccc(N2C(=O)CCC2=O)cc1` was > 4 mM (inactive). Take `Nc1ccc(S(=O)(=O)N2CCCCC2)cc1`: the Kd was > 4 mM (inactive).

For the compound `Cc1ccc(SCc2nc(-c3cccnc3)no2)cc1`, the Kd is > 4 mM (inactive). In the case of `O=C(CSc1ccnc(=O)[nH]1)NCc1ccco1` it was > 4 mM (inactive); in that of `O=C(O)c1cn(-c2ccccc2)nc1-c1cccnc1`, > 4 mM (inactive); in that of `O=C(O[C@@H]1Cc2c(O)cc(O)cc2O[C@@H]1c1cc(O)c(O)c(O)c1)c1cc(O)c(O)c(O)c1`, > 4 mM (inactive). In the case of `COc1ccc(CC(=O)c2ccc(O)cc2O)cc1` it was > 4 mM (inactive); in that of `Nc1nc2ncc(=O)[nH]c2c(=O)[nH]1`, > 4 mM (inactive).

Regarding `CCCn1cnn2c(=O)cc(C)nc12`, the Kd was > 4 mM (inactive). The value for `O=C(O)CC1C(=O)NCCN1Cc1cccs1` (configuration not stated) was > 4 mM (inactive); that for `O=C1NCCCC1C(=O)N/N=C/c1ccccc1` (configuration not stated) was > 4 mM (inactive); that for `Nc1nnc(COc2cccc(C(F)(F)F)c2)s1` was > 4 mM (inactive). In the case of `CNC(=O)c1cc(C)c(-c2ccccc2)s1` it was > 4 mM (inactive); in that of `OCC1CCN(c2ncccn2)CC1`, > 4 mM (inactive).

As to `Nc1ncnc(NCCCO)c1[N+](=O)[O-]`, the Kd was > 4 mM (inactive).

(Values after PubChem BioAssay AID1552 (Sanford-Burnham Center for Chemical Genomics, 2009).)
